We go through five compounds from patent US20210128537A1, “T-TYPE CALCIUM CHANNEL MODULATORS AND METHODS OF USE THEREOF” (Praxis Precision Medicines, inc., priority 2016, published 2021).

In series [1] the test system is fully kindled rats. The series is described as follows: Amygdala kindling model, anti-seizure testing in fully kindled rats. It is filed as in vivo, rat. Conditions: for primary after discharge: all four doses of Z944, ETX 100 mg/kg, compared to vehicle (p>0.5). As to the method: Animals were implanted with EEG recording electrodes and with a stimulating bipolar electrode in the left basolateral amygdaloid nucleus using the coordinates AP±3.0 mm, ML±5.9 mm, DV±6.0 mm. The after discharge threshold (ADT) for each animal was determined by administering a stimulation (frequency=60.1 Hz; duration=1000 μs) at one minute intervals until a seizure was clicited. The amplitude of the stimulation was started at 0.02 mA with increments of 0.02 mA; the stimulations were stopped when the animal experienced a seizure of ≥6 second duration, or if the amplitude of 0.40 mA was reached without the occurrence of a seizure. […] Kindling was performed twice a day for five days per week with an endpoint of 30 stimulations or until the animal presented five class V seizures (referred to as fully kindled). The seizure severity was classified from 0 (less severe) to V (most severe) according to the Racine Scale (Racine, 1972b). Sham kindled animals were handled the same way as the kindled animals, although no electrical stimulation was applied. An animal is classified as fully kindled once it has experienced 5 class V seizures.
Drug testing was performed twice a week until all animals had received each of the seven treatments, Z944 (5 mg/kg, 10 mg/kg, 30 mg/kg and 100 mg/kg), vehicle (10% DMSO/90% Na^+-CMC or CBZ vehicle 20% DMSO/40% propylene glycol/40% saline), ETX (100 mg/kg) or CBZ (30 mg/kg). Prior to drug testing each day, animals were subjected to a maximum of three pre-drug stimulations 30 minutes apart. The animals qualified for testing on that particular day if a class IV or V seizure was elicited in at least 2 out of 3 pre-drug stimulations. Stimulations consisted of a 1 second train of 1 ms biphasic square wave pulses at a frequency of 60 Hz with current amplitude based on each animal ADT that elicited a seizure. Thirty minutes after the last pre-drug stimulation, the animals received an IP injection of one of the seven treatments in a randomized manner at a dose volume of 5 ml/kg. Six post-drug stimulations were administered to each animal, the first stimulation was given 15 minutes post drug injection (to allow brain penetration of the drugs) and the following five stimulations were delivered in 30 minutes intervals thereafter with the seizure class elicited being recorded after each post-drug stimulation. The duration of the primary and total seizures, if any, were recorded. An investigator blinded to the drug treatment analyzed all EEG recordings. Primary after discharge is the duration of the seizure elicited from the kindling stimulation. Total after discharge is the total seizure duration including any secondary seizures that occur after the primary after discharge. Primary after discharge duration and total seizure duration were recorded and averaged for the 6 post-drug stimulations.
Animal weight and behaviour when handled were monitored for the duration of the experimental period. Additionally, animals were assessed by observation for any adverse effects of drugs on grooming, fur appearance, gait, and excretion.

Series [2] has as its target hCaV3.2 (Homo sapiens, UniProt O95180). The series is described as follows: Inactivated channel state FLIPR assay, concentration-dependent inhibition of hCaV3.2. It is filed as cell-based. Conditions: for IC50: hCaV3.2, inactivated channel state FLIPR, n=4 wells per concentration; for slope of the concentration-inhibition curve: logistic function fit.
In series [3] the test system is absence seizures in patients. Conditions: cited from earlier work.
In series [4] the test system is post-SE rats. The experiment in a line: Kainic acid induced post-status epilepticus model, video-EEG seizure analysis. The series is classed as in vivo, rat. Conditions: osmotic pump 4 weeks; Z944 60 mg/kg/day, levetiracetam 200 mg/kg/day. As for the experimental part: Pumps were filled with either Z944 to deliver a daily dose of 60 mg/kg, levetiracetam to deliver a daily dose of 200 mg/kg or vehicle. For the drug tolerability study, osmotic pumps continuously either Z944, levetiracetam or vehicle for 7 days and for the post-SE study osmotic pumps delivered continuously the different treatments for 28 days.
FIG. 11 summarizes the different methods used on this experimental paradigm.
Animals were implanted with subdural EEG recording electrodes and one week after surgery, the animals were connected using cables that allowed them free movement around their cage. A repeated low dose KA administration protocol was used. Rats were injected i.p. with an initial dose of KA 7.5 mg/kg plus 3 ml of normal saline to prevent dehydration. Animals were monitored for 45 minutes for EEG and behavioural seizures based on the Racine scale. […] This was repeated up to 2 times every 45 minutes. An animal was eliminated from the experiment if it didn't show a stable self-sustained SE after a maximum KA total dose of 15 mg/kg. Two sham groups were treated identically but received saline injections instead of KA. After four hours of sustained electroencephalographic and behavioural seizures the animals were randomly allocated to one of the five treatment groups: sham+vehicle (n=6), sham+Z944 (n=6), post-SE+vehicle (n=8), post-SE+Z944 (n=8), post-SE+levetiracetam (n=9).
Animals were anesthetized and implanted with subcutaneous osmotic pumps containing either vehicle Z944 (60 mg/kg/day), or levetiracetam (200 mg/kg/day) that delivered the treatment continuously for 4 weeks. Immediately after the pump implantation, SE was stopped with diazepam (5 mg/kg/dose).
vEEG recordings commenced at least 4 h prior the induction of SE to provide baseline recordings. The video-EEG recordings continued for the whole duration of the treatment period, i.e. four weeks after the termination of the SE. […] EEG analysis was performed in a blinded manner and confirmed by two different observers. All EEG recordings were visually and manually annotated using Profusion 3 software. A seizure was defined as an episode of rhythmic spiking activity that was three times the baseline amplitude and a frequency >5 Hz that lasted at least 10 s. The end of a seizure was determined as the last spike. The average number of seizures per day, average seizure duration and seizure class (severity) were analysed.

Series [5] concerns post-SE rats. The series is described as follows: Morris water maze in post-SE rats. The series is classed as in vivo, rat. Conditions: Z944 60 mg/kg/day, levetiracetam 200 mg/kg/day for 4 weeks. As for the experimental part: All behavioural tests were performed in a light-controlled (˜110 lux), closed, quiet and clean room in the. Behavioural testing was performed in a blinded manner to the treatment groups. All of the behavioural tests were video recorded for future analysis. OF, EPM and MWM sessions were filmed using a digital camera mounted above the centre of the arena, which was connected to a computer for the recording and objective analysis of digitized behavioural tests (EthoVision 3.0.15, Noldus). The first behavioural test was performed one week after the last EEG recording. The different behavioural tests/session were performed 24 hours apart from each other. All tests were scored by an experienced observer who was blind to the experimental conditions of the animals.
The MWM is a circular black PVC plastic pool of 160 cm diameter which is filled to a depth of either 2.5 cm above a 10 cm diameter hidden platform water at 25±1° C. The platform is located in the centre of the South-West quadrant during the first 3 sessions and changed to North-East quadrant for the remaining sessions. Visual cues are placed in the main 4 cardinal points, consisting of large black and white symbols that serve as orientation landmarks for the rats. […] The latency to find the escape platform, speed and strategic path used by the animal to locate the platform are recorded. […]

Read-outs that look alike come from different tables or passages of the source.

hCaV3.2, sequence (O95180 whole entry): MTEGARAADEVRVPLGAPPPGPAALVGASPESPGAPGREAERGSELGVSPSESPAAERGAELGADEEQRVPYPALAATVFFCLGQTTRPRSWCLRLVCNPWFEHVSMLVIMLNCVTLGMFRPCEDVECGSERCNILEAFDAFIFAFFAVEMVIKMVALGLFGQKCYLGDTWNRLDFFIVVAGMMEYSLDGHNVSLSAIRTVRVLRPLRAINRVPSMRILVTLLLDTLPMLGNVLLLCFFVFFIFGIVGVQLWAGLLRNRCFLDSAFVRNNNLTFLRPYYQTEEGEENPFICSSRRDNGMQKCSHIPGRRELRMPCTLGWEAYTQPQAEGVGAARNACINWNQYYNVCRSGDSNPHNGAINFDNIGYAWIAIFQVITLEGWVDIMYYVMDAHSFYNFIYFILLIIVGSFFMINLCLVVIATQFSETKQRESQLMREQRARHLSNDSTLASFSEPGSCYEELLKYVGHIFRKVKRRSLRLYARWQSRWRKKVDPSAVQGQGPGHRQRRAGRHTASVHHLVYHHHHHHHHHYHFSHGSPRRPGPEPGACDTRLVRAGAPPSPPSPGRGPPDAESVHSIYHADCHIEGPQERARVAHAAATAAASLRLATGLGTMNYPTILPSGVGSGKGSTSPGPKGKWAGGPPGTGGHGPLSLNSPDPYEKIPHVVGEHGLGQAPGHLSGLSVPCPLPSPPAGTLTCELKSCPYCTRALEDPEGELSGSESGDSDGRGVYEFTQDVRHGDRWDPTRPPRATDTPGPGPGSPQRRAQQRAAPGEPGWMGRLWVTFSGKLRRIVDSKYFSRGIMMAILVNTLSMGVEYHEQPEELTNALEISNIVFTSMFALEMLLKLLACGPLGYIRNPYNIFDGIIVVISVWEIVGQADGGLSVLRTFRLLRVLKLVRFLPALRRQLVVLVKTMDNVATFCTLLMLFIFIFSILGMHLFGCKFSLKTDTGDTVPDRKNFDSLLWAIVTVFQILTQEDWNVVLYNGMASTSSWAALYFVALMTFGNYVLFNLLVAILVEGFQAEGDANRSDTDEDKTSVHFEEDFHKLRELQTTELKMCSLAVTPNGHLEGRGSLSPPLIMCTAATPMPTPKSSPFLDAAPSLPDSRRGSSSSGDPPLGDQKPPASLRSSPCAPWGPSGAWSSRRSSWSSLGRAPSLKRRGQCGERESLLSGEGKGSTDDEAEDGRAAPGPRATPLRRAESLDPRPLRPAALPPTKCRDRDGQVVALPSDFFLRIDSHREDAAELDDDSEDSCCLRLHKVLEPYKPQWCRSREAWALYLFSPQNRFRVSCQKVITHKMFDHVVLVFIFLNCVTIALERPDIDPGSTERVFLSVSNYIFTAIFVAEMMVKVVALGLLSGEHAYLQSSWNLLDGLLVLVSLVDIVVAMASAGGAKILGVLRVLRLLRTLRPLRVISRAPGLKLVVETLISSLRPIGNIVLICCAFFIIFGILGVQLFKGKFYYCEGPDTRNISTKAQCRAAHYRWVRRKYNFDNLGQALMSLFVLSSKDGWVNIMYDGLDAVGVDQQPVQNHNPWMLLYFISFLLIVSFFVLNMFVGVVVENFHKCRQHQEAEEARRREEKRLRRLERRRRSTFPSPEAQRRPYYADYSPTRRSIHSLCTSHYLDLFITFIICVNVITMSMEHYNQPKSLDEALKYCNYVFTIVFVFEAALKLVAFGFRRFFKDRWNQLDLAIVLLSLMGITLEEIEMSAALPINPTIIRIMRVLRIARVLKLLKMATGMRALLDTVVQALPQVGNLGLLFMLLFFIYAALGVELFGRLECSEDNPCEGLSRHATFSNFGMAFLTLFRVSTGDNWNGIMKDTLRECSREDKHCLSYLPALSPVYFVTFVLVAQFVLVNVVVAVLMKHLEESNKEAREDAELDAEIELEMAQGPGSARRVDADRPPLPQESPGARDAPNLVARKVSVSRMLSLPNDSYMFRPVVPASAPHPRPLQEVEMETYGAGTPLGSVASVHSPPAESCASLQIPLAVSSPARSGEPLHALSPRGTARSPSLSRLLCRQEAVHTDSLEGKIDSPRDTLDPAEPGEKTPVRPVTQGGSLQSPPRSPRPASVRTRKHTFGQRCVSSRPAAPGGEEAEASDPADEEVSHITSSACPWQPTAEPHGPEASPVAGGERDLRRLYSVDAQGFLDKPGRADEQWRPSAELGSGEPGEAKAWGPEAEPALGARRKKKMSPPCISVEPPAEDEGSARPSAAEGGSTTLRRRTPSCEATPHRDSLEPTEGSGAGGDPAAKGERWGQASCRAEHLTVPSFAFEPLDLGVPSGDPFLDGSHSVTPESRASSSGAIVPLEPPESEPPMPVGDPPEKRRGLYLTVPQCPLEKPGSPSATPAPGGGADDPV

For the compound `NC(=O)N1c2ccccc2C=Cc2ccccc21` [Carbamazepine, carbamazepine, reference compound], in series [1] (IP, Z944 5, 10, 30, 100 mg/kg, CBZ 30 mg/kg, compared to vehicle), the “seizure class elicited (Racine scale)” value is recorded as “significantly reduced the class of seizure elicited”. Also, the primary after discharge entry in series [1] (IP, CBZ 30 mg/kg) is “did not affect the primary after discharge”. Further, in series [1] (Z944 100 mg/kg, CBZ 30 mg/kg IP, p<0.01), the “adverse effects (sedation scale 0-4) compared to vehicle” value is “significantly higher adverse effects”.

A word on the IC50: it is the concentration that gives 50% inhibition. Read a high IC50 as weaker potency in that assay. Regarding `CCC1(C)CC(=O)NC1=O` (stereo not drawn) [Ethosuximide, ethosuximide, reference compound], half-maximal inhibition in series [2] (IC50) was put at 70 mM. Besides, the primary after discharge entry in series [1] (IP, CBZ 30 mg/kg) was “did not affect the primary after discharge”.

Turning to `CCCC(CCC)C(=O)[O-].[Na+]` [Valproate, sodium valproate], the “patients whose seizures were completely controlled” value in series [3] (at 12 months) is 44%; in series [3] (at 16 weeks, video-EEG recordings) it was 58%. For the same compound, the “slope of the concentration-inhibition curve” value in series [2] worked out at 4.4.

In the case of `CC(C)(C)NC(=O)CN1CCC(CNC(=O)c2cccc(Cl)c2)CC1` [Z941], in series [2], the half-inhibitory concentration (IC50) was 0.00012 mM and the “slope of the concentration-inhibition curve” value turned out to be 0.8.

Take `CC[C@@H](C(N)=O)N1CCCC1=O` [levetiracetam, reference compound]: in series [4], the “neurological adverse effects after prolonged treatment” value was “only transient and minor neurological adverse effects”. The “time to find the hidden platform (cognition)” value in series [5] is reported as “took significantly longer to find the hidden platform”.
